Laboratory results as given in patent publication US12258338B2, “Modulators of the integrated stress response pathway” (EVOTEC INTERNATIONAL GMBH, priority 2019, dated 2025).
In brackets after ≈: the same amount, converted by molar mass. Like-named read-outs stand apart in the source and are kept apart here.

Assays:
[1] = Thermodynamic (Equilibrium) solubility in selected buffer; type: physicochemical; settings: Table 25; for solubility: aqueous buffer, thermodynamic from solid
Method: Protocol—Thermodynamic (Equilibrium) Solubility in Selected Buffer
Example compounds were tested in the Thermodynamic (Equilibrium) solubility in selected buffer assay. The test compound, in powder form, was weighted into a 4 mL glass vial and a calculated volume of selected medium was added to reach the target concentration of the solubility test (1 mg/mL). The solution was then stirred overnight at r.t. protected from the light. The solution was filtered through a 0.45 μm PTFE membrane at ambient temperature. An aliquot of the resulting filtrate was quantified using UPLC-UV method described below against a reference solution of the test compound, 0.8 mg/mL in DMSO. Media compositions: Phosphate buffer 50 mM (pH=2.0) […] of NaH2PO4, H2O in 200 mL of ultrapurified water adjusted at pH 2 with phosphoric acid 85%; Acetate buffer 50 mM (pH=5.5) 820 mg of anhydrous sodium acetate in 200 mL of ultrapurified water adjusted at pH 5.5 with acetic acid 99.8%; Phosphate buffer 50 mM (pH=7.4) 40.5 mL of Na2HPO4 0.1 M solution+9.5 mL of NaH2PO4 0.1 M solution. Analytical conditions: UPLC-UV-MS analyses were performed with a Waters Acquity UPLC HClass-PDA-QDa system using a reverse phase Acquity BEH C18 column (2.1 mm×50 mm, 1.7 μm; temperature: 40° C.) and a gradient of 10-95% B (A=0.1% formic acid in H2O; B=0.05% formic acid in ACN) over 1.8 min then 100% B for 0.8 min, with an injection volume of 0.4 μL at flow rate of 0.65 mL/min. UV chromatograms were recorded at 220 nm, 254 nm and 290 nm using a photo diode array detector. Mass spectra were recorded in the 150 to 900 M/Z range at a sampling rate of 10 scans per sec using a QDa detector. Data were integrated using Empower®3 software. Data Analysis: Equilibrium solubility of the test compound in the selected medium was calculated through the ratio of the surface area of the UV chromatographic peak of the compound in the filtrate to the surface of the UV chromatographic peak of the compound in the reference solution.

ATF4 = test: HEK-ATF4 High Content Imaging assay (prevention of Tunicamycin induced ISR; ATF4 signal ratio between nucleus and cytoplasm); type: cell-based; settings: Homo sapiens; Wild-type HEK293 cells, Tunicamycin induced ISR, 6 h; read-out: IIEK-ATF4 Activity
Procedure, shortened: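 Wild-type HEK293 cells in 0.3% FBS medium were co-treated with compounds and Tunicamycin (3.3 μM in prediluted medium, 11-fold over final) for 6 h at 37 °C. Fixed cells were immunostained for ATF4 with Hoechst nuclei; imaging gave nuclear/cytoplasmic ATF4 ratio, with nuclei counts as toxicity control.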

[2] = target: T1, human ERG potassium channel (hERG) (Homo sapiens, UniProt Q12809); test: hERG channel tail current recording using in vitro Rapid ICE (automated patch-clamp, QPatch HTX); type: cell-based; settings: Table 26
T1 construct: expressed in transfected cells; host or cells: HEK293, stably transfected, tetracycline-inducible promoter
Procedure, shortened: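 Automated patch clamp on tetracycline-induced HEK293 hERG cells; pulse −80 to −50 mV 200 ms, +20 mV 4.8 s, −50 mV 5 s tail, extracellular pH 7.4. Compound at 0.3, 3, 30 μM (0.3% DMSO), 5 min exposure; tail current versus vehicle gives % inhibition and estimated IC50.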

[3] = acetate buffer 50 mM, pH 5.5, read-out: Solubility (μg/mL) pH 5.5
[4] = phosphate buffer 50 mM, pH 2.0, read-out: Solubility (μg/mL) pH 2.0
[5] = phosphate buffer 50 mM, pH 7.4, read-out: Solubility (μg/mL) pH 7.4

T1 sequence (Q12809 whole entry): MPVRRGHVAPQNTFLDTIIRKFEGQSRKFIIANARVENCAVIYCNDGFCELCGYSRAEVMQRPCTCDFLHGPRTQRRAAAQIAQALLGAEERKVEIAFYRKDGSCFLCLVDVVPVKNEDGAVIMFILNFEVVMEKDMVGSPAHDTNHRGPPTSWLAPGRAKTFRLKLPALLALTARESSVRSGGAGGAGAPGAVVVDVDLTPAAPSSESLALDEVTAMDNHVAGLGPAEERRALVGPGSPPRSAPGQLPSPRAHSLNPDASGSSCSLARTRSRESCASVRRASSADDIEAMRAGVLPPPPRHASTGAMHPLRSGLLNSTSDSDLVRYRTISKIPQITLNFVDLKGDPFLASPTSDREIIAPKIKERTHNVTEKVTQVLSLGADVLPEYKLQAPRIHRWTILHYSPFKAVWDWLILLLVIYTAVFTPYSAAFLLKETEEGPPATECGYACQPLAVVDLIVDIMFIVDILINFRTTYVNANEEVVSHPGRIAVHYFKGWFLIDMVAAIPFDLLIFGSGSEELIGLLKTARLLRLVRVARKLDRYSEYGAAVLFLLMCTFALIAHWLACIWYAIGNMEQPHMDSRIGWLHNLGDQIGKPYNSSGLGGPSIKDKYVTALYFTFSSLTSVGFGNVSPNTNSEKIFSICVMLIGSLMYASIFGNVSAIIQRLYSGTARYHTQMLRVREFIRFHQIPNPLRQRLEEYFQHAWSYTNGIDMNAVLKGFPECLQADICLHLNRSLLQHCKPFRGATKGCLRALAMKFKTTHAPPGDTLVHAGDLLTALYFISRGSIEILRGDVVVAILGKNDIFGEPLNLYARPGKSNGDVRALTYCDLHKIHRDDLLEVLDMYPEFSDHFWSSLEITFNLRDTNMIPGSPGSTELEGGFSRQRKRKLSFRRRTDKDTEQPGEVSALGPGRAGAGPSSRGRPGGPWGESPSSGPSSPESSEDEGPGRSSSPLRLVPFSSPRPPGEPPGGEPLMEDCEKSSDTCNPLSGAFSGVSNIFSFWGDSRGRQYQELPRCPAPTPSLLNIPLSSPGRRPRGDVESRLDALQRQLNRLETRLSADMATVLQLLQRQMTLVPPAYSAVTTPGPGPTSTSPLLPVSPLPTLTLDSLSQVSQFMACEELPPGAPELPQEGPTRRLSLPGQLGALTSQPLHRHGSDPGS

SMILES | solubility [1, 3] [µg/mL] | solubility [1, 4] [µg/mL] | solubility [1, 5] [µg/mL] | IC50 (ATF4) [nM] | IC50 [2] [nM] | Solubility (μg/mL) pH 2.0 ([1]; pH 2.0)
O=C(COc1ccc(Cl)c(F)c1)N[C@H]1CC[C@H](c2nnc(N3CC[C@H](OC(F)(F)F)C3)o2)NC1 (single isomer, unassigned) [Example 110] | 256 (≈ 504 µM) | 982 (≈ 1930 µM) | 132 (≈ 260 µM) | 1 to 500 | > 5000 | –
O=C(COc1ccc(Cl)c(F)c1)N[C@H]1CC[C@H](c2nnc(N3CC[C@@H](OC(F)(F)F)C3)o2)NC1 (single isomer, unassigned) [Example 111] | 9 (≈ 17.7 µM) | 911 (≈ 1790 µM) | 6 (≈ 11.8 µM) | 1 to 500 | 1000 to 5000 | –
O=C(COc1ccc(Cl)c(C(F)F)c1)N[C@H]1CC[C@H](c2nnc(OCCOC(F)(F)F)o2)NC1 [Example 11, 2-[4-chloro-3-(difluoromethyl)phenoxy]-N-[(3S,6R)-6-{5-[2-(trifluoromethoxy)ethoxy]-1,3,4-oxadiazol-2-yl}piperidin-3-yl]acetamide] | 60 (≈ 117 µM) | 617 (≈ 1200 µM) | 42 (≈ 81.6 µM) | 1 to 500 | > 5000 | –
Cc1cc(OCC(=O)N[C@H]2CC[C@H](c3nnc(OCCOC(F)(F)F)o3)NC2)ccc1Cl [Example 12, 2-(4-chloro-3-methylphenoxy)-N-[(3S,6R)-6-{5-[2-(trifluoromethoxy)ethoxy]-1,3,4-oxadiazol-2-yl}piperidin-3-yl]acetamide] | 113 (≈ 236 µM) | 651 (≈ 1360 µM) | 105 (≈ 219 µM) | 1 to 500 | > 5000 | –
Cc1ccc(OCC(=O)N[C@H]2CC[C@H](c3nnc(OCCOC(F)(F)F)o3)NC2)cc1C [Example 13, 2-(3,4-dimethylphenoxy)-N-[(3S,6R)-6-{5-[2-(trifluoromethoxy)ethoxy]-1,3,4-oxadiazol-2-yl}piperidin-3-yl]acetamide] | 318 (≈ 694 µM) | 661 (≈ 1440 µM) | 240 (≈ 524 µM) | 1 to 500 | > 5000 | –
O=C(COc1ccc(C(F)(F)F)nc1)N[C@H]1CC[C@H](c2nnc(OCCOC(F)(F)F)o2)NC1 [Example 14, N-[(3S,6R)-6-{5-[2-(trifluoromethoxy)ethoxy]-1,3,4-oxadiazol-2-yl}piperidin-3-yl]-2-{[6-(trifluoromethyl)pyridin-3-yl]oxy}acetamide] | 814 (≈ 1630 µM) | 616 (≈ 1230 µM) | 606 (≈ 1210 µM) | 500 to 2000 | > 5000 | –
O=C(COc1ccc(Cl)c(F)c1)N[C@H]1CC[C@H](c2nnc(-c3ccc(C(F)(F)F)nc3)o2)NC1 [Example 52, 2-(4-chloro-3-fluorophenoxy)-N-[(3S,6R)-6-{5-[6-(trifluoromethyl)pyridin-3-yl]-1,3,4-oxadiazol-2-yl}piperidin-3-yl]acetamide] | 9 (≈ 18 µM) | 839 (≈ 1680 µM) | 7 (≈ 14 µM) | 1 to 500 | 1 to 1000 | –
O=C(COc1ccc(Cl)c(F)c1)N[C@H]1CC[C@H](c2nnc(C3CN(CC(F)(F)F)C3)o2)NC1 [Example 57, 2-(4-chloro-3-fluorophenoxy)-N-[(3S,6R)-6-{5-[1-(2,2,2-trifluoroethyl)azetidin-3-yl]-1,3,4-oxadiazol-2-yl}piperidin-3-yl]acetamide] | 663 (≈ 1350 µM) | – | 501 (≈ 1020 µM) | 500 to 2000 | > 5000 | quant.^#
O=C(COc1ccc(Cl)c(Cl)c1)N[C@H]1CC[C@H](c2nnc([C@H]3C[C@@H](OC(F)F)C3)o2)NC1 [Example 60, 2-(3,4-dichlorophenoxy)-N-[(3S,6R)-6-(5-[(1s,3s)-3-(difluoromethoxy)cyclobutyl]-1,3,4-oxadiazol-2-yl}piperidin-3-yl]acetamide] | 47 (≈ 95.7 µM) | 886 (≈ 1800 µM) | 91 (≈ 185 µM) | 1 to 500 | 1 to 1000 | –
O=C(COc1ccc(Cl)c(F)c1)N[C@H]1CC[C@H](c2nnc(OC3CCC(F)(F)C3)o2)NC1 (stereo partly drawn) [Example 68, 2-(4-chloro-3-fluorophenoxy)-N-[(3S,6R)-6-{5-[(3,3-difluorocyclopentyl)oxy]-1,3,4-oxadiazol-2-yl}piperidin-3-yl]acetamide] | 168 (≈ 354 µM) | 909 (≈ 1910 µM) | 102 (≈ 215 µM) | 2000 to 15000 | 1000 to 5000 | –
O=C(COc1ccc(Cl)c(F)c1)N[C@H]1CC[C@H](c2nnc(OCCOC(F)F)o2)NC1 [Example 75, 2-(4-chloro-3-fluorophenoxy)-N-[(3S,6R)-6-{5-[2-(difluoromethoxy)ethoxy]-1,3,4-oxadiazol-2-yl}piperidin-3-yl]acetamide] | 26 (≈ 55.9 µM) | 713 (≈ 1530 µM) | 22 (≈ 47.3 µM) | 1 to 500 | 1000 to 5000 | –
O=C(COc1ccc(Cl)c(F)c1)N[C@H]1CC[C@H](c2nnc(OCCOC(F)(F)F)o2)NC1 [Example 77, 2-(4-chloro-3-fluorophenoxy)-N-[(3S,6R)-6-{5-[2-(trifluoromethoxy)ethoxy]-1,3,4-oxadiazol-2-yl}piperidin-3-yl]acetamide] | 98 (≈ 203 µM) | 810 (≈ 1680 µM) | 76 (≈ 157 µM) | 1 to 500 | 1000 to 5000 | –
CC(F)(F)CCCOc1nnc([C@H]2CC[C@H](NC(=O)COc3ccc(Cl)c(F)c3)CN2)o1 [Example 84, 2-(4-chloro-3-fluorophenoxy)-N-[(3S,6R)-6-{5-[(4,4-difluoropentyl)oxy]-1,3,4-oxadiazol-2-yl}piperidin-3-yl]acetamide] | 93 (≈ 195 µM) | 717 (≈ 1500 µM) | 62 (≈ 130 µM) | 1 to 500 | 1000 to 5000 | –
O=C(COc1ccc(Cl)c(Cl)c1)N[C@H]1CC[C@H](c2nnc(OCCOC(F)(F)F)o2)NC1 [Example 85, 2-(3,4-dichlorophenoxy)-N-[(3S,6R)-6-{5-[2-(trifluoromethoxy)ethoxy]-1,3,4-oxadiazol-2-yl}piperidin-3-yl]acetamide] | 9 (≈ 18 µM) | 918 (≈ 1840 µM) | 6 (≈ 12 µM) | 1 to 500 | 1000 to 5000 | –
O=C(COc1ccc(Cl)c(F)c1)N[C@H]1CC[C@H](c2nnc(N3CC(C(F)(F)F)C3)o2)NC1 [Example 90, 2-(4-chloro-3-fluorophenoxy)-N-[(3S,6R)-6-{5-[3-(trifluoromethyl)azetidin-1-yl]-1,3,4-oxadiazol-2-yl}piperidin-3-yl]acetamide] | 294 (≈ 615 µM) | – | 173 (≈ 362 µM) | 500 to 2000 | > 5000 | quant.^#
O=C(COc1ccc(Cl)c(F)c1)N[C@H]1CC[C@H](c2nnc(N3CC(OC4CC4)C3)o2)NC1 [Example 95, 2-(4-chloro-3-fluorophenoxy)-N-[(3S,6R)-6-[5-(3-cyclopropoxyazetidin-1-yl)-1,3,4-oxadiazol-2-yl]piperidin-3-yl]acetamide] | 378 (≈ 811 µM) | 970 (≈ 2080 µM) | 230 (≈ 494 µM) | 1 to 500 | 1000 to 5000 | –
O=C(COc1ccc(Cl)c(F)c1)N[C@H]1CC[C@H](c2noc([C@H]3C[C@@H](OC(F)(F)F)C3)n2)NC1 [Example 98, 2-(4-chloro-3-fluorophenoxy)-N-[(3S,6R)-6-{5-[(1s,3s)-3-(trifluoromethoxy)cyclobutyl]-1,2,4-oxadiazol-3-yl}piperidin-3-yl]acetamide] | 61 (≈ 124 µM) | – | 17 (≈ 34.5 µM) | 1 to 500 | 1000 to 5000 | quant.^#
O=C(COc1ccc(C(F)(F)F)cc1)N[C@H]1CC[C@H](c2nnc(OCCOC(F)(F)F)o2)NC1 [Example 112, N-[(3S,6R)-6-{5-[2-(trifluoromethoxy)ethoxy]-1,3,4-oxadiazol-2-yl}piperidin-3-yl]-2-[4-(trifluoromethyl)phenoxy]acetamide] | 97 (≈ 195 µM) | 812 (≈ 1630 µM) | 67 (≈ 134 µM) | 1 to 500 | > 5000 | –
